Data on one molecule can be found in patent publication US20110262945A1, “GLYCOPROTEIN PRODUCTION METHOD AND SCREENING METHOD” (OTSUKA CHEMICAL CO., LTD., priority 2008, published 2011).

Assay [1] concerns the target T1, Chymotrypsin (Bos taurus, UniProt P00766). Kind of assay: Michaelis-Menten plot of the substrate peptide (degradation by chymotrypsin). It is filed as biochemical. Set-up: unit not given here. To be noted: 30 minutes at 37° C. Here is the method:
(§1) Into 1 mL of a 0.1 M phosphate buffer (pH 8.0, containing BSA (0.1 mg/mL)), 3.1 mg of the 14-residue peptide thus synthesized (SEQ ID NO:16) was dissolved to prepare a 2 mM solution. This solution was diluted to prepare substrate solutions having concentrations of 1.6 mM, 1.2 mM, 0.8 mM, 0.4 mM, 0.2 mM, 0.1 mM, and 0.05 mM. Separately, chymotrypsin (1 mg) was dissolved in 1 mL of a 0.1 M phosphate buffer (pH 8.0, containing BSA (0.1 mg/mL)). The resulting solution was diluted 10-fold, and further diluted 10-fold. The above operation was repeated so that a solution of 0.1 μg/mL was prepared. Into the same Eppendorf tube, 50 μL of a substrate solution of each concentration that was sufficiently cooled on ice and 50 μL of the enzyme solution were transferred, followed by incubation for 30 minutes at 37° C. After 30 minutes, the reaction was terminated by addition of 10 μL of 1N hydrochloric acid. Then, 20 μL of the resulting reaction solution was mixed with 80 μL of buffer to make up a total of 100 μL, which was then measured by HPLC. A degradation rate per unit time (a reaction rate per unit time) was calculated from the peak area of HPLC of the reaction product (FIG. 36).

Assay [2] concerns the target T1, Chymotrypsin. The experiment in a line: Lineweaver-Burk plot of the substrate peptide (degradation by chymotrypsin). In kind it is biochemical. To be noted: 30 minutes at 37° C. Here is the method: as §1, with “mg/mL)), 1.5” for “mg/mL)), 3.1”, “a 1” for “a 2”, “of 1” for “of 1.6”, “mM, 500 μM, 333 μM, 250 μM,” for “mM, 1.2 mM, 0.8 mM, 0.4 mM, 0.2 mM, 0.1 mM,”, “and 200 μM.” for “and 0.05 mM.”, “(FIG. 37).” for “(FIG. 36).”

Each structure is given as a SMILES string. Where a SMILES comes first, the peptide text is derived from it. [ ]: non-standard residue; d: D form. Thz = O=C(O)[C@@H]1CSCN1

`C[C@@H](O)[C@H](NC(=O)[C@H](CCCCN)NC(=O)[C@H](CC(N)=O)NC(=O)[C@H](CC(=O)O)NC(=O)[C@H](CO)NC(=O)CNC(=O)[C@@H]1CSCN1)C(=O)N[C@@H](Cc1ccc(O)cc1)C(=O)NCC(=O)N[C@@H](CC(N)=O)C(=O)N[C@@H](CCCCN)C(=O)N[C@@H](CS)C(=O)N[C@@H](CC(N)=O)C(=O)N[C@@H](Cc1ccccc1)C(=O)O` [substrate peptide] (H-[Thz]GSDNKTYGNKCNF-OH): the “V (reaction rate per unit time)” value at Chymotrypsin [1] (substrate 0.05 mM) was 0.013; at Chymotrypsin [1] (substrate 0.1 mM), 0.027; on Chymotrypsin [1] (substrate 0.2 mM), 0.046; at Chymotrypsin [1] (substrate 0.4 mM) it was 0.068; at Chymotrypsin [1] (substrate 0.6 mM), 0.075; on Chymotrypsin [1] (substrate 0.8 mM) it was 0.083. For the same molecule, at Chymotrypsin [1] (substrate 1 mM), the “V (reaction rate per unit time)” value was found to be 0.087. In addition, the “1/V (inverse of the reaction rate)” value at Chymotrypsin [2] (1/Substrate 2 1/mM) amounted to 7.02 mol⁻¹ min⁻¹; at Chymotrypsin [2] (1/Substrate 4 1/mM), 8.51 mol⁻¹ min⁻¹; on Chymotrypsin [2] (1/Substrate 6 1/mM) it was 11.9 mol⁻¹ min⁻¹; on Chymotrypsin [2] (1/Substrate 8 1/mM), 10.9 mol⁻¹ min⁻¹; at Chymotrypsin [2] (1/Substrate 10 1/mM) it was 14.7 mol⁻¹ min⁻¹.
